# In patent US20250228837A1, “(2S)-1-[4-(3,4-DICHLOROPHENYL)PIPERIDIN-1-YL]-3-[2-(5-METHYL-1,3,4-OXADIAZOL-2-YL)BENZO[B]FURAN-4-YLOXY] PROPAN-2-OL OR ITS METABOLITE FOR TREATING ANXIETY DISORDERS” (Minerva Neurosciences, Inc., priority 2016, published 2025):
# Entries after “also recorded” stand apart in the source; their conditions may differ. Counter-ions that a name gives are not always drawn. Like-named read-outs stand apart in the source and are kept apart here.
# Assays:
# 5-HT1A receptor [1] = molecular target: T1, 5-HT1A receptor (Homo sapiens, UniProt P08908); settings: in vitro; disclosed in U.S. Pat. No. 6,720,320; cited from earlier work
# T1 sequence (P08908 1-422): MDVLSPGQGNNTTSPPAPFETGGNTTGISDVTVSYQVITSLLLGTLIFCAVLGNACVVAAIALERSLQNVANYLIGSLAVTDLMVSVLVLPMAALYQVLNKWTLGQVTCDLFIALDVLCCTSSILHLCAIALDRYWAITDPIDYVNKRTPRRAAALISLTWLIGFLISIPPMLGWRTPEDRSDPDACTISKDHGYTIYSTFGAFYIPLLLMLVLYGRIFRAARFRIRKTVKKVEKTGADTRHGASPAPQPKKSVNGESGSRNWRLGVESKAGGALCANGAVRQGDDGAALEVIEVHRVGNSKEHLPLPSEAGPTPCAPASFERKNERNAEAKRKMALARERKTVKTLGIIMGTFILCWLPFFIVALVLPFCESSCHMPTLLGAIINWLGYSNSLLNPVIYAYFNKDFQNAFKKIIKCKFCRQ
# serotonin reuptake = serotonin reuptake (Homo sapiens, UniProt P31645); settings: from U.S. Pat. No. 6,720,320 / Minerva Form 10K, cited from earlier work
# adult subjects with MDD = assay: Phase 2a randomized, double-blind, placebo- and active-controlled study; anxiety by HAM-A over 6 weeks; assay type: in vivo, human; settings: for speed of onset of the reduction in total HAM-A score: 0.5 mg dose compared with the 2.5 mg dose and other arms, Week 1 vs. Week 2; for reduction in severity of anxiety symptoms compared to placebo (change from baseline in total HAM-A score): MDD patients, ITT, once daily oral 0.5 mg or 2.5 mg, 6 weeks of treatment
# Procedure: In an embodiment, the effect of the treatment is measured using the Hamilton Anxiety Scale (HAM-A). The subject is asked to rate the gravity of each item using a 5-level scale—from 0 to 4, where 0 being not present and 4 being severe. The results are then collated and tabulated to determine the severity of anxiety: a HAM-A score of <17 is mild anxiety, HAM-A score of 18-24 is mild to moderate anxiety, and HAM-A score of 25-30 is moderate to severe anxiety.
# A phase 2a, multicenter, multinational, randomized, double-blind, placebo- and active-controlled parallel-group study was conducted to investigate the efficacy and safety of MIN-117 in adult subjects with MDD. One of the exploratory objectives of the study was to assess effects of MIN-117 compared to placebo on anxiety as measured by change from baseline in the Hamilton Anxiety Rating Scale (HAM-A) over 6 weeks of treatment.
# The study consisted of a 4-week pre-treatment phase during which subjects were washed out from antidepressant medications or other psychotropics, followed by a 6-week treatment phase, and then an end of study (EOS) follow-up visit at approximately 2-weeks after the end of the treatment phase. MIN-117 capsules of 0.5 mg and 2.5 mg strength were used in the study. The capsules were size 4 made of white hard gelatin containing the drug substance, lactose, cornstarch, low substituted hydroxypropylcelullose and hydroxypropylcelullose, and purified water.
# Eighty-four eligible subjects (met the DSM-5 diagnostic criteria for moderate to severe MDD, without psychotic features) were randomized in a 1:1:1:1 ratio, to receive once daily oral doses of placebo, MIN-117 at 0.5 mg, MIN-117 at 2.5 mg, or paroxetine at 20 mg as an active comparator for 6 weeks. Paroxetine is an antidepressant of the SSRI class and is used to treat MDD, OCD, PTSD, social anxiety disorder, panic disorder, GAD, premenstrual dysphoric disorder and menopausal hot flashes. The HAM-A scale was used to measure the severity of each subject's anxiety at screening, baseline, and weeks 1, 2, 4, 6 (or early withdrawal) and EOS.
# Subjects had to meet all of the following inclusion criteria to be eligible for participation in this study: • 1. Subjects must be able to read and understand the consent forms, complete study-related procedures, and communicate with the study staff. • 2. Subjects must have provided written consent to participate in the study and understand that they are free to withdraw from the study at any time. • 3. Male or female subjects must be 18 to 65 years of age, inclusive, at Screening (Visit 1). • 4. Subjects have a body mass index (BMI) of ≥18 to ≤35 kg/m^2 [BMI=weight (kg)/height (m^2)] at Screening (Visit 1) • 5. Subjects must meet Diagnostic and Statistical Manual of Mental Disorders—Fifth Edition (DSM-5) criteria for diagnosis of moderate or severe depression without psychotic features (ICD-9 codes 296.32 & 296.33; ICD-10 codes F33.1 & F33.2, respectively) at Screening based on clinical assessment and on the MINI, v7.0. • 6. Subjects have a history of at least one previous episode of depression prior to the current episode. • 7. Current major depressive episode of at least 8 weeks in duration. • 8. Subjects must have a score of ≥30 on the investigator-rated MADRS at Screening (Visit 1) and Baseline (Visit 2a). • 9. Subjects must have a score of ≥4 on the investigator-rated CGI-S at Screening (Visit 1) and Baseline (Visit 2a). • 10. Subjects must be in good general health prior to study participation with no clinically relevant abnormalities as assessed by the investigator and determined by medical history, physical examination, blood chemistry, hematology, urinalysis, and electrocardiogram (ECG). • 11. […] Male subjects who are willing to use condom for the duration of the study and until 90 days after the last dose of the study, even if they have had vasectomy, and must inform their partners about taking an investigational medication. […]
# 5-HT1A receptor [2] = molecular target: T1, 5-HT1A receptor; settings: from U.S. Pat. No. 6,720,320 / Minerva Form 10K, cited from earlier work
# dopamine reuptake = dopamine reuptake (Homo sapiens, UniProt Q01959); settings: Minerva Form 10K, 14 Mar. 2016; cited from earlier work
# 5-HT2A receptors = 5-HT2A receptors (Homo sapiens, UniProt P28223); settings: Minerva Form 10K, 14 Mar. 2016; cited from earlier work
# α1B-adrenergic receptor = molecular target: T2, α1B-adrenergic receptor (Homo sapiens, UniProt P35368); settings: Minerva Form 10K, 14 Mar. 2016; cited from earlier work
# T2 sequence (P35368 1-520): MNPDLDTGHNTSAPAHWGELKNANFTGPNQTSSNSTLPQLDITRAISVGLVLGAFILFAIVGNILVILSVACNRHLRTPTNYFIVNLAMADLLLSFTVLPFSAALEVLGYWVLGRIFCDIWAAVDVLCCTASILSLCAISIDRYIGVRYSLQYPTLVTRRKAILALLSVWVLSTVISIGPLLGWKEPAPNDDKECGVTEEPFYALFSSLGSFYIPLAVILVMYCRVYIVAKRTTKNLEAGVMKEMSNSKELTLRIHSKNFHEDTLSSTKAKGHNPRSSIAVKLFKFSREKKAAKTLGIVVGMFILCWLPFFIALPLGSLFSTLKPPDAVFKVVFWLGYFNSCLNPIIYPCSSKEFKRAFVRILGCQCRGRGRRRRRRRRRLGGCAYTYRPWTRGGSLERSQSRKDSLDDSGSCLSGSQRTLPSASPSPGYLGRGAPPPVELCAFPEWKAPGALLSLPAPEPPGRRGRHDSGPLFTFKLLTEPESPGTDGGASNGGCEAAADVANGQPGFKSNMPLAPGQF
# α1A-adrenergic receptor = molecular target: T3, α1A-adrenergic receptor (Homo sapiens, UniProt P35348); settings: Minerva Form 10K, 14 Mar. 2016; cited from earlier work
# T3 sequence (P35348 1-466): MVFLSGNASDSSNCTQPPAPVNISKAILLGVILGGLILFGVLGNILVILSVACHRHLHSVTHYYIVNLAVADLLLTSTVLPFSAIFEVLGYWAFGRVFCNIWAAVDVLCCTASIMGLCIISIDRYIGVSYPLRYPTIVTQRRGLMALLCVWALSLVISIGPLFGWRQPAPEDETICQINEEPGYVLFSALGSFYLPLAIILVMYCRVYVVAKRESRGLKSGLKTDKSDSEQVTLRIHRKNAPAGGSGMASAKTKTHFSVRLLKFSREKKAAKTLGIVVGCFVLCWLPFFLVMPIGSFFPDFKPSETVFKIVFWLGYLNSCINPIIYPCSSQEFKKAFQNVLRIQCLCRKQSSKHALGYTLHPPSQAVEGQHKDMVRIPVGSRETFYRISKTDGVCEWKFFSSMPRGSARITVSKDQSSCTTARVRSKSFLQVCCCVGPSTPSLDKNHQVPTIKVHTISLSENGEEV
# Chain of serotonin reuptake (P31645 whole entry): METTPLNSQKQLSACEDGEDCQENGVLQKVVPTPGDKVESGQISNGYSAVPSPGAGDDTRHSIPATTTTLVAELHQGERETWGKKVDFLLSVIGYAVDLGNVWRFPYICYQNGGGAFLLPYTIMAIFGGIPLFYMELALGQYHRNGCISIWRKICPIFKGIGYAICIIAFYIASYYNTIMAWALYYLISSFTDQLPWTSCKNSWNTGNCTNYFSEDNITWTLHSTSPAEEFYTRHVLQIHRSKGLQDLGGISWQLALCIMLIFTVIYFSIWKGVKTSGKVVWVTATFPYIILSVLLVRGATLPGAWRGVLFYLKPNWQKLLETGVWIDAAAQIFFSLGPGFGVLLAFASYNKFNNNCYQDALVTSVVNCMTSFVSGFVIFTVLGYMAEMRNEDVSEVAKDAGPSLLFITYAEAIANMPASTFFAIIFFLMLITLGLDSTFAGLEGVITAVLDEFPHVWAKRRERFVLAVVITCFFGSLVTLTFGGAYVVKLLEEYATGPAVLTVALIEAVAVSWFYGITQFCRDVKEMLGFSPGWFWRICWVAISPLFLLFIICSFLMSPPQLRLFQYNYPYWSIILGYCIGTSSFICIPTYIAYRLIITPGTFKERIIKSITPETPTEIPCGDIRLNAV
# Chain of dopamine reuptake (Q01959 whole entry): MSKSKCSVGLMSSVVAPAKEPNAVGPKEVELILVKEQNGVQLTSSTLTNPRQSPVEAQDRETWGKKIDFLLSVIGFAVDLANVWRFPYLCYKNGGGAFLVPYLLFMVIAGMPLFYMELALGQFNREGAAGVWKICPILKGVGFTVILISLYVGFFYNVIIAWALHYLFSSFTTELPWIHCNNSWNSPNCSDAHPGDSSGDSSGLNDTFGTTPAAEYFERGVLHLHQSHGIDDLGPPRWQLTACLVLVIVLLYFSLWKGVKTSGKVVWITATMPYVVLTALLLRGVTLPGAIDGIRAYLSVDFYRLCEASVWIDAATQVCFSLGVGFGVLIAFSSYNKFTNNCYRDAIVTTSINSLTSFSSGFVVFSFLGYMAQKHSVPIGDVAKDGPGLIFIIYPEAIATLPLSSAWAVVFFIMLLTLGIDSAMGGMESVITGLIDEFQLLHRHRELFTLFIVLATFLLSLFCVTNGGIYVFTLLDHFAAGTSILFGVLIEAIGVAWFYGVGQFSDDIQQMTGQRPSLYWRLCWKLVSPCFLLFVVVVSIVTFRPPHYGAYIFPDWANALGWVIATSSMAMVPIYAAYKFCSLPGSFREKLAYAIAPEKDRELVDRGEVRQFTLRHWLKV
# Chain of 5-HT2A receptors (P28223 whole entry): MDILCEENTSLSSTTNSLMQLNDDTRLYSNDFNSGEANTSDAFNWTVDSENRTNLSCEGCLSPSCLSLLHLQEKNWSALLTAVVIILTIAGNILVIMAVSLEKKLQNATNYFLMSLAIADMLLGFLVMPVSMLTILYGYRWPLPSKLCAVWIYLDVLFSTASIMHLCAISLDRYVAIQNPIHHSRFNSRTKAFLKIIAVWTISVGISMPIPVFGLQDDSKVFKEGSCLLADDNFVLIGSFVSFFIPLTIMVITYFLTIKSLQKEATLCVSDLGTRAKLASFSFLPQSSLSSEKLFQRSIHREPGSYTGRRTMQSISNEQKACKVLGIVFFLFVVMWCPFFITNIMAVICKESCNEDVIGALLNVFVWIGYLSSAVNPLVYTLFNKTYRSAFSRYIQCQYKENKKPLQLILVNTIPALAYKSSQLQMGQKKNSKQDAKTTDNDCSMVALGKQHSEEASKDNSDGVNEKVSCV
Structure (SMILES),affinity for the 5-HT1A receptor (5-HT1A receptor [1]),activity on serotonin (5-HT) reuptake (serotonin reuptake),speed of onset of the reduction in total HAM-A score (adult subjects with MDD),reduction in severity of anxiety symptoms compared to placebo (change from baseline in total HAM-A score) (adult subjects with MDD),activity at the 5-HT1A receptor (5-HT1A receptor [2]),activity on dopamine reuptake (dopamine reuptake),activity on serotonin (5-HT) reuptake (serotonin reuptake; monohydrochloride),activity at the 5-HT2A receptor (5-HT2A receptors),speed of onset of the reduction in total HAM-A score (adult subjects with MDD; monohydrochloride),time after starting therapy to a beneficial result over placebo (adult subjects with MDD; 0.5 mg total daily dose) [weeks],reduction in severity of anxiety symptoms compared to placebo (change from baseline in total HAM-A score) (adult subjects with MDD; monohydrochloride),"tolerability (adult subjects with MDD; both doses (0.5 mg and 2.5 mg once daily, 6 weeks))","ability of both doses to reduce severity of symptoms, 0.5 mg vs 2.5 mg (adult subjects with MDD; by Week 6)",affinity for the α1B-adrenergic receptor (α1B-adrenergic receptor),affinity for the α1A-adrenergic receptor (α1A-adrenergic receptor),activity at the 5-HT1A receptor (5-HT1A receptor [2]; monohydrochloride)
"Cc1nnc(-c2cc3c(OC[C@@H](O)CN4CCC(c5ccc(Cl)c(Cl)c5)CC4)cccc3o2)o1 [Compound I, (2S)-1-[4-(3,4-dichlorophenyl)piperidin-1-yl]-3-[2-(5-methyl-1,3,4-oxadiazol-2-yl)benzo[b]furan-4-yloxy]propan-2-ol]",selective affinity,5-HT reuptake inhibitory activity,more rapid reduction,reduced anxiety symptoms compared to placebo; also recorded: capable of reducing the severity of one or more anxiety symptoms,antagonistic activity,,,,,,,,,,,
"Cc1nnc(-c2cc3c(OC[C@@H](O)CN4CCC(c5ccc(Cl)c(Cl)c5)CC4)cccc3o2)o1 [MIN-117, (2S)-1-[4-(3,4-dichlorophenyl)piperidin-1-yl]-3-[2-(5-methyl-1,3,4-oxadiazol-2-yl)benzo[b]furan-4-yloxy]propan-2-ol monohydrochloride]",,,,,,antagonist,antagonist,antagonist,fastest onset,2,reduces anxiety symptoms; also recorded: capable of reducing the severity of one or more anxiety symptoms,well tolerated,comparable,having affinity,having affinity,antagonist
"OCc1nnc(-c2cc3c(OC[C@@H](O)CN4CCC(c5ccc(Cl)c(Cl)c5)CC4)cccc3o2)o1 [Compound II, (2S)-1-[4-(3,4-dichlorophenyl)piperidin-1-yl]-3-[2-(5-hydroxymethyl-1,3,4-oxadiazol-2-yl)benzo[b]furan-4-yloxy]propan-2-ol]",selective affinity,5-HT reuptake inhibitory activity,,,antagonistic activity,,,,,,,,,,,
